Measurements published in US9771370B2, “Compounds for the inhibition of indoleamine-2,3-dioxygenase” (Merck Patent GmbH, priority 2014, dated 2017).

Molecular target: Recombinant human IDO (Homo sapiens, UniProt P14902)
Experiment: Bridge-IT tryptophan fluorescence assay of human IDO-1 inhibition
Assay type: biochemical
Conditions: recombinant human IDO 7.5 nM, L-tryptophan
Description: Measurement of human IDO-1 inhibition is performed in 384 well format using the Bridge-IT® tryptophan Fluorescence Assay (Mediomics, LLC, St. Louis, Mo., U.S.A.).
The reaction is initiated by the addition of L-Tryptophan (Sigma) at a final concentration of 100 μM in assay buffer. After 90 minutes of incubation at 37° C., the reaction is stopped by transferring 1 μl of the reaction mixture to 9 μl of Bridge-IT assay solution A. After 30 min of incubation at 30° C., the fluorescence intensity was measured at λex=485 nm and λem=665 nm using Perkin Elmer Envision® Multilabel Reader.
Measurement of human IDO-1 inhibition was performed in 384-well format using the BRIDGE-IT® tryptophan Fluorescence Assay (Mediomics, LLC, St. Louis, Mo., U.S.A.). […] After 30 minutes of pre-incubation at 25° C., the reaction was initiated by the addition of L-Tryptophan (Sigma) at a final concentration of 50 μM in assay buffer. After 60 minutes of incubation at 25° C., the reaction is stopped by transferring 1 μl of the reaction mixture to 9 μl of Bridge-IT assay solution A. After 30 min of incubation at 30° C., the fluorescence intensity was measured at λex=485 nm and λem=665 nm using Perkin Elmer ENVISION® Multilabel Reader.

Sequence of Recombinant human IDO (P14902 whole entry): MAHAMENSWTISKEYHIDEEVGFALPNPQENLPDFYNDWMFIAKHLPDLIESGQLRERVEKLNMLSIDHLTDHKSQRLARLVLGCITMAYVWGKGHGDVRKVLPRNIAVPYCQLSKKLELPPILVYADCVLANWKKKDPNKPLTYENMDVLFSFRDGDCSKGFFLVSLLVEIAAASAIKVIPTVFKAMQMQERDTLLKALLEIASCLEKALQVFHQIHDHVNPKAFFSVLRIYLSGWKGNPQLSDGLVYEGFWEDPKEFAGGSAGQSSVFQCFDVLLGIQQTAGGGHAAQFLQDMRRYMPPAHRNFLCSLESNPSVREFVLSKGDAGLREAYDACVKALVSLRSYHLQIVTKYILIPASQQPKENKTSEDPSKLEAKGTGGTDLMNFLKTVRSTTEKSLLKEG

SMILES	IC50
COc1ccc2c(n1)C(CCC1(F)CCCCC1)n1cncc1-2 (single isomer, unassigned) [Compound 32a, 7-[2-(1-fluorocyclohexyl)ethyl]-10-methoxy-4,6,9-triazatricyclo[6.4.0.0^[2,6]]dodeca-1(8),2,4,9,11-pentaene]	> 1000 nM
COc1ccc2c(n1)C(CCC1(F)CCCCC1)n1cncc1-2 (single isomer, unassigned) [Compound 32b, 7-[2-(1-fluorocyclohexyl)ethyl]-10-methoxy-4,6,9-triazatricyclo[6.4.0.0^[2,6]]dodeca-1(8),2,4,9,11-pentaene]	100 to 1000 nM
COc1ccc2c(n1)C(CCC1(F)CCC(F)(F)CC1)n1cncc1-2 (single isomer, unassigned) [Compound 34a, 10-methoxy-7-[2-(1,4,4-trifluorocyclohexyl)ethyl]-4,6,9-triazatricyclo[6.4.0.0^[2,6]]dodeca-1(8),2,4,9,11-pentaene]	< 100 nM
COc1ccc2c(n1)C(CCC1(F)CCC(F)(F)CC1)n1cncc1-2 (single isomer, unassigned) [Compound 34b, 10-methoxy-7-[2-(1,4,4-trifluorocyclohexyl)ethyl]-4,6,9-triazatricyclo[6.4.0.0^[2,6]]dodeca-1(8),2,4,9,11-pentaene]	> 1000 nM
OC1CCC(F)(CCC2c3cccc(F)c3-c3cncn32)CC1 (single isomer, unassigned) [Compound 35a, 4-fluoro-4-(2-(9-fluoro-5H-imidazo[5,1-a]isoindol-5-yl)ethyl)cyclohexanol]	> 1000 nM
OC1CCC(F)(CCC2c3cccc(F)c3-c3cncn32)CC1 (single isomer, unassigned) [Compound 35b, 4-fluoro-4-(2-(9-fluoro-5H-imidazo[5,1-a]isoindol-5-yl)ethyl)cyclohexanol]	100 to 1000 nM
OC1CCC(F)(CCC2c3cccc(F)c3-c3cncn32)CC1 (single isomer, unassigned) [Compound 35c, 4-fluoro-4-(2-(9-fluoro-5H-imidazo[5,1-a]isoindol-5-yl)ethyl)cyclohexanol]	< 100 nM
OC1CCC(F)(CCC2c3cccc(F)c3-c3cncn32)CC1 (single isomer, unassigned) [Compound 35d, 4-fluoro-4-(2-(9-fluoro-5H-imidazo[5,1-a]isoindol-5-yl)ethyl)cyclohexanol]	> 1000 nM
Fc1cccc2c1-c1cncn1C2CCC1(F)CCCCC1 (single isomer, unassigned) [Compound 36a, 9-fluoro-5-(2-(1-fluorocyclohexyl)ethyl)-5H-imidazo[5,1-a]isoindole]	> 1000 nM
Fc1cccc2c1-c1cncn1C2CCC1(F)CCCCC1 (single isomer, unassigned) [Compound 36b, 9-fluoro-5-(2-(1-fluorocyclohexyl)ethyl)-5H-imidazo[5,1-a]isoindole]	> 1000 nM
Fc1ccc(F)c2c1-c1cncn1C2CCC1(F)CCCCC1 (single isomer, unassigned) [Compound 37a, 6,9-difluoro-5-(2-(1-fluorocyclohexyl)ethyl)-5H-imidazo[5,1-a]isoindole]	> 1000 nM
Fc1ccc(F)c2c1-c1cncn1C2CCC1(F)CCCCC1 (single isomer, unassigned) [Compound 37b, 6,9-difluoro-5-(2-(1-fluorocyclohexyl)ethyl)-5H-imidazo[5,1-a]isoindole]	100 to 1000 nM
OC1CCC(F)(CCC2c3c(F)ccc(F)c3-c3cncn32)CC1 (single isomer, unassigned) [Compound 38a, 4-(2-(6,9-difluoro-5H-imidazo[5,1-a]isoindol-5-yl)ethyl)-4-fluorocyclohexanol]	> 1000 nM
OC1CCC(F)(CCC2c3c(F)ccc(F)c3-c3cncn32)CC1 (single isomer, unassigned) [Compound 38b, 4-(2-(6,9-difluoro-5H-imidazo[5,1-a]isoindol-5-yl)ethyl)-4-fluorocyclohexanol]	100 to 1000 nM
OC1CCC(F)(CCC2c3c(F)ccc(F)c3-c3cncn32)CC1 (single isomer, unassigned) [Compound 38c, 4-(2-(6,9-difluoro-5H-imidazo[5,1-a]isoindol-5-yl)ethyl)-4-fluorocyclohexanol]	> 1000 nM
OC1CCC(F)(CCC2c3c(F)ccc(F)c3-c3cncn32)CC1 (single isomer, unassigned) [Compound 38d, 4-(2-(6,9-difluoro-5H-imidazo[5,1-a]isoindol-5-yl)ethyl)-4-fluorocyclohexanol]	< 100 nM

SMILES	IC50
COc1ccc2c(n1)C(CC(O)C1CCCCC1)n1cncc1-2 (single isomer, unassigned) [Compound 39a, 1-Cyclohexyl-2-[10-methoxy-4,6,9-triazatricyclo[6.4.0.0^[2,6]]dodeca-1(8),2,4,9,11-pentaen-7-yl]ethan-1-ol]	< 100 nM
COc1ccc2c(n1)C(CC(O)C1CCCCC1)n1cncc1-2 (single isomer, unassigned) [Compound 39b, 1-Cyclohexyl-2-[10-methoxy-4,6,9-triazatricyclo[6.4.0.0^[2,6]]dodeca-1(8),2,4,9,11-pentaen-7-yl]ethan-1-ol]	100 to 1000 nM
COc1ccc2c(n1)C(CC(O)C1CCC(C)(C)CC1)n1cncc1-2 (single isomer, unassigned) [Compound 40a, 1-(4,4-dimethylcyclohexyl)-2-[10-methoxy-4,6,9-triazatricyclo[6.4.0.0^[2,6]]dodeca-1(8),2,4,9,11-pentaen-7-yl]ethan-1-ol]	> 1000 nM
COc1ccc2c(n1)C(CC(O)C1CCC(C)(C)CC1)n1cncc1-2 (single isomer, unassigned) [Compound 40b, 1-(4,4-dimethylcyclohexyl)-2-[10-methoxy-4,6,9-triazatricyclo[6.4.0.0^[2,6]]dodeca-1(8),2,4,9,11-pentaen-7-yl]ethan-1-ol]	100 to 1000 nM
COc1cccc2c1-c1cncn1C2CCC1(F)CCCCC1 (single isomer, unassigned) [Compound 42a, 5-(2-(1-fluorocyclohexyl)ethyl)-9-methoxy-5H-imidazo[5,1-a]isoindole]	> 1000 nM
COc1cccc2c1-c1cncn1C2CCC1(F)CCCCC1 (single isomer, unassigned) [Compound 42b, 5-(2-(1-fluorocyclohexyl)ethyl)-9-methoxy-5H-imidazo[5,1-a]isoindole]	100 to 1000 nM
Oc1cccc2c1-c1cncn1C2CCC1(F)CCCCC1 (single isomer, unassigned) [Compound 43a, 5-(2-(1-fluorocyclohexyl)ethyl)-5H-imidazo[5,1-a]isoindol-9-ol]	> 1000 nM
Oc1cccc2c1-c1cncn1C2CCC1(F)CCCCC1 (single isomer, unassigned) [Compound 43b, 5-(2-(1-fluorocyclohexyl)ethyl)-5H-imidazo[5,1-a]isoindol-9-ol]	< 100 nM
COc1ccc(F)c2c1-c1cncn1C2CCC1(F)CCCCC1 (single isomer, unassigned) [Compound 45a, 6-fluoro-5-(2-(1-fluorocyclohexyl)ethyl)-9-methoxy-5H-imidazo[5,1-a]isoindole]	> 1000 nM
COc1ccc(F)c2c1-c1cncn1C2CCC1(F)CCCCC1 (single isomer, unassigned) [Compound 45b, 6-fluoro-5-(2-(1-fluorocyclohexyl)ethyl)-9-methoxy-5H-imidazo[5,1-a]isoindole]	> 1000 nM
CC1(C)CCC(F)(CCC2c3ncccc3-c3cncn32)CC1 (single isomer, unassigned) [Compound 48a, 7-[2-(1-fluoro-4,4-dimethylcyclohexyl)ethyl]-4,6,9-triazatricyclo[6.4.0.0^[2,6]]dodeca-1(8),2,4,9,11-pentaene]	> 1000 nM
CC1(C)CCC(F)(CCC2c3ncccc3-c3cncn32)CC1 (single isomer, unassigned) [Compound 48b, 7-[2-(1-fluoro-4,4-dimethylcyclohexyl)ethyl]-4,6,9-triazatricyclo[6.4.0.0^[2,6]]dodeca-1(8),2,4,9,11-pentaene]	> 1000 nM
OC(CC1c2nc(Cl)ccc2-c2cncn21)C1CCC(F)(F)CC1 (single isomer, unassigned) [Compound 52a, 2-[10-chloro-4,6,9-triazatricyclo[6.4.0.0^[2,6]]dodeca-1(8),2,4,9,11-pentaen-7-yl]-1-(4,4-difluorocyclohexyl)ethan-1-ol]	100 to 1000 nM
OC(CC1c2nc(Cl)ccc2-c2cncn21)C1CCC(F)(F)CC1 (single isomer, unassigned) [Compound 52c, 2-[10-chloro-4,6,9-triazatricyclo[6.4.0.0^[2,6]]dodeca-1(8),2,4,9,11-pentaen-7-yl]-1-(4,4-difluorocyclohexyl)ethan-1-ol]	> 1000 nM
COc1ccc2c(n1)C(CC(O)C1CCC3(CC1)CC3)n1cncc1-2 (single isomer, unassigned) [Compound 53b, 2-[10-methoxy-4,6,9-triazatricyclo[6.4.0.0^[2,6]]dodeca-1(8),2,4,9,11-pentaen-7-yl]-1-[spiro[2.5]octan-6-yl]ethan-1-ol]	< 100 nM
COc1ccc2c(n1)C(CC(O)C1CCC3(CC1)CC3)n1cncc1-2 (single isomer, unassigned) [Compound 53c, 2-[10-methoxy-4,6,9-triazatricyclo[6.4.0.0^[2,6]]dodeca-1(8),2,4,9,11-pentaen-7-yl]-1-[spiro[2.5]octan-6-yl]ethan-1-ol]	> 1000 nM
